Results published in EP4635958A1, “PYRIMIDINE-CONTAINING POLYCYCLIC DERIVATIVE INHIBITOR, AND PREPARATION METHOD THEREFOR AND USE THEREOF” (Shanghai Hansoh Biomedical Co., Ltd., priority 2022, dated 2024).
Counter-ions that a name gives are not always drawn.

Assays:
[1] = tested on: human pancreatic cancer cell line (HPAC); test: Antitumor efficacy in mouse transplanted tumor model of human pancreatic cancer cell line (HPAC); assay type: in vivo, mice (BALB/c nude); conditions: HPAC xenograft, 100mpk, PO*BID; for Tumor volume (mm^3, Mean ± SD) Day 0: Day 0 (baseline)
Source text: 8-10 week old female conventional immunodeficient mice (BALB/c nude) with a body weight of 18 g-22 g were used as experimental animals, and a transplanted tumor model of human pancreatic cancer cell line (HPAC) was used to conduct in vivo efficacy experiments to test the anti-tumor results of the example compounds after gavage administration.
The example compounds of the present invention, made in house.
A certain amount of the example compound was weighed, and an appropriate amount of 10% vehicle (Solutol HS15) was added. The mixture was stirred on a magnetic stirrer for 0.5 h to formulate a homogeneous suspension at the desired concentration.
Human pancreatic cancer cell line (HPAC) was derived from COBIOER BIOSCIENCES CO., LTD, cultured on DMEM/F12 medium (Gibco, 11330-032) supplemented with 10% fetal calf serum (Gibco, 10091-148), 1×Insulin (51500-056, Gibco) and 10 ng/ml of EGF (PHG0311, Gibco) and observed under a microscope (Thermo Fisher, 311). The cells were routinely passaged when the cells reached 80%-90% confluence in the culture flask. The passaged cells were cultured in a 37°C, 5% CO2 incubator (Thermo Fisher, 311).
Under aseptic conditions, human pancreatic cancer cells (HPAC) in the logarithmic growth phase were harvested using 0.25% trypsin-EDTA (Gibco, 25200-056), washed and resuspended with phosphate buffer. The cell suspension was mixed with Matrigel (Corning, 356234) at a 1 : 1 ratio (v/v) and implanted subcutaneously into the right anterior dorsal region of immunodeficient mice (BALB/c nude). Each mouse was inoculated with 3*10^6 cells in a volume of 100 microliters (µL). After inoculation, when the tumor volume reached 100-200 mm^3, the mice would be evenly randomized into 5 groups based on the tumor size, with 5 mice per group, for in vivo efficacy experiments. The negative control group was the vehicle group.
Mode of administration: The example compounds were administered orally.
Twice a week, the long and short diameters of the tumor were measured using a vernier caliper, and the tumor volume (mm^3) was calculated using the formula: V = 0.5*D*d*d, where D and d are the long and short diameters of the tumor, respectively. The anti-tumor efficacy was determined by dividing the average increase in tumor volume of compound-treated animals by the average increase in tumor volume of untreated animals. The calculation formula for tumor inhibition rate was: When there is no tumor regression, TGI(%) = 100-[(Vt-V0) administration group/(Vt-V0) vehicle control group]*100%. When tumor regression occurs, TGI(%) = [1-(Vt-V0) administration group/V0 vehicle control group]*100%. All animals were euthanized after the experiment.

p-ERK in AGS cells = test: Inhibition of p-ERK in AGS cells (LANCE Ultra phospho-ERK1/2 kit); assay type: cell-based; conditions: Homo sapiens, AGS, 2 h, read-out: AGS_pERK IC50
Experimental: 1. Experimental objective: The inhibition activity of the example compounds on the phosphorylated ERK level in KRAS G12D mutant cells AGS was determined. 2. Experimental instruments: • 2.1 Instruments: Envison; Pipette (Eppendorf & Rainin) • 2.2 Reagents: AGS cells were purchased from COBIOER BIOSCIENCES CO., LTD, with a catalog number of CBP60476; Phosphorylated ERK1/2 (T202-Y204) LANCE Ultra Cellular Detection Kit was purchased from PerkinElmer, with a catalog number of TRF4000M; RPMI 1640 was purchased from Gibco, with a catalog number of 22400071; FBS was purchased from Gibco, with a catalog number of 10091148; PBS was purchased from Gibco, with a catalog number of 10010023; trypsin was purchased from Gibco, with a catalog number of 25200056; cell culture plates were purchased from Corning Company, with a catalog number of 3610; White opaque OptiPlate™-384 plates were purchased from PerkinElmer, with a catalog number of 6007290. 3. Experimental method: When AGS cells were cultured to appropriate confluence, the AGS cells were collected, and the cell density was adjusted to 4 × 10^5/mL using complete culture medium. The cell suspension was plated onto a 96-well plate at 100 µL per well, and the plate was placed in the incubator at 37°C and 5% CO2 for adherent culture overnight. Solutions of the compound with different concentrations were formulated using DMSO and complete culture medium, and a vehicle control was set up. The solutions of the compound were added to the 96-well plate at 25 µL per well, and the plate was placed in the incubator at 37°C and 5% CO2 for further culture for 2 h. Then, the supernatant of the cell culture plate was discarded, 50 µL of lysis buffer was added to each well, the cells were lysed at room temperature under shaking for 30 min, then placed in a centrifuge and centrifuged at 1000 rpm for 1 min. 15 µL of supernatant was transferred to a 384-well plate, 5 µL of detection mixture was added to each well (Eu-labeled anti-ERK1/2 (T202-Y204) Antibody at a final detection concentration of 0.5 nM and ULight labeled anti-ERK1/2 Antibody at a final detection concentration of 5 nM), centrifuged at 1000 rpm for 1 min, mixed evenly, and reacted at room temperature overnight. The plate was read using Envison and the signal values at the emission wavelengths of 620 nm and 665 nm were detected using a time-resolved fluorescence program. 4. […] Graphpad Prism software was used to fit the concentration and inhibition rate to a nonlinear regression curve, so as to obtain the IC50 value. Table 5: Inhibition activity of the compounds on p-ERK in AGS cells

[2] = Plasma stability test, mouse plasma; assay type: in vitro ADME; conditions: Mouse plasma, 37°C; for half-life: read-out: t1/2 (converted);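 as to all read-outs here: test compound quantified by LC-MS using positive-mode electrospray ionization and MRM scanning, with an internal standard added in acetonitrile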
Experimental: (§1) Liquid chromatography-mass spectrometer, centrifuge, vortexer, pipette, continuous dispenser, 96-well plate, 50% methanol aqueous solution, acetonitrile solution containing internal standard, blank matrix (plasma of rat, dog, or human), Propantheline (propantheline bromide), Mevinolin (lovastatin), and test compound.
(§2) After whole blood was collected from animals or humans, it was placed in a test tube containing an anticoagulant and centrifuged at 3500 rpm for 10 min to collect the upper pale yellow plasma.
(§3) The compound was weighed and the stock solution was formulated with DMSO and the working solution was formulated with 100 mM phosphate buffer.
(§4) • Instrument: API4000 liquid chromatography-mass spectrometer, AB Company, USA; • the ion source was electrospray ionization source (ESI); • drying gas (N2) temperature was 500°C; • electrospray voltage was 5500V; • the detection method was positive ion detection; • the scanning method was selected reaction monitoring (MRM); • the scanning time was 0.1s.

[3] = Plasma stability test, rat plasma; conditions: for Remaining rate (%) 0 min / Remaining rate (%) 15 min / Remaining rate (%) 30 min / Remaining rate (%) 60 min / Remaining rate (%) 120 min: Rat plasma, 37°C; for half-life: rat, plasma
Source text: The purpose of this experiment was to detect the stability of the example compounds in plasma of mouse, rat, dog and human.
as §1, §2, §3
2.36 mg of propantheline bromide was weighed and diluted with 1 mL of DMSO into a 10 mM stock solution; 10 µL of 10 mM stock solution was pipetted into 1 mL of 100 mM phosphate buffer to achieve a final concentration of 100 µM.
4.05 mg of lovastatin was weighed and diluted with 1 mL of DMSO into a 10 mM stock solution; 10 µL of 10 mM stock solution was pipetted into 1 mL of 100 mM phosphate buffer to achieve a final concentration of 100 µM.
• 1) In a 96-well plate, 285 µL of plasma and 15 µL of 10 µM compound (test compound) were added in sequence and incubated at 37°C. • 2) 40 µL was taken at 0, 15, 30, 60, 90, and 120 min (the sampling point can be fine-tuned) and 160 µL of acetonitrile stop solution containing internal standard was add. • 3) After centrifugation (3500 rpm, 10 min), 50 µL of supernatant was taken, and 50 µL of DDH2O added for dilution and then the obtained mixture was injected into LC-MS/MS.
• Instruments: Shimadzu LC-20 AD • Chromatographic column: Phenomenex Gemiu ® C18 (50*4.6 mm, 5 µm particle size); • mobile phase: A: Acetonitrile, B: 0.1% formic acid solution 0-8 min: 5% A→95% A, 2.0-2.1 min: 90%A→5% A; Flow rate: 0.8 mL/min; Run time: 5.0 min; Injection volume: 5 µL.
as §4

Molecule	IC50 (p-ERK in AGS cells)	Remaining rate (%) 0 min [2]	Remaining rate (%) 15 min [2]	Remaining rate (%) 30 min [2]	Remaining rate (%) 60 min [2]	Remaining rate (%) 120 min [2]	half-life [2]	Remaining rate (%) 0 min [3]	Remaining rate (%) 15 min [3]	Remaining rate (%) 30 min [3]	Remaining rate (%) 60 min [3]	Remaining rate (%) 120 min [3]	half-life [3]	other results
4-((5S,5aS,6R,9S)-12-((1-((((R)-4-(difluoromethylene)-2-methylpiperidin-1-yl)methyl)cyclopropyl)methoxy)-1-fluoro-5-(methyl-d3)-5a,6,7,8,9,10-hexahydro-5H-4-oxa-3,10a,11,13,14-pentaaza-6,9-methylnaphtho[1,8-ab]hept-2-yl)-5-ethynyl-6-fluoronaphthalen-2-ol [Example 162]														Tumor volume (mm^3, Mean ± SD) Day 0 ([1]; Table 11): 210 mm^3; TGI(%) Day 21 ([1]; Table 11, Day 21): 126.15%; Tumor volume (mm^3, Mean ± SD) Day 21 ([1]; Table 11, Day 21): 155 mm^3; ΔT/ΔC(%) Day 21 ([1]; Table 11, Day 21): 13.54%
C#Cc1c(F)ccc2cc(O)cc(-c3nc4c5c(nc(OCC6(CN7CCC(=C(F)F)CC7)CC6)nc5c3F)N3C[C@H]5CC[C@H](N5)[C@H]3CO4)c12 [Example 1-1, 4-((5aS,6S,9R)-12-((1-((4-(difluoromethylene)piperidin-1-yl)methyl)cyclopropyl)methoxy)-1-fluoro-5a,6,7,8,9,10-hexahydro-5H-4-oxa-3,10a,11,13,14-pentaaza-6,9-methylenenaphtho[1,8-ab]heptalene-2-yl)-5-ethynyl-6-fluoronaphthalen-2-ol]	7 nM	100.00%	94.74%	96.27%	96.21%	98.50%	146 h	100.00%	95.76%	92.93%	88.38%	80.60%	13.5 h	
C#Cc1c(F)ccc2cc(O)cc(-c3nc4c5c(nc(OCC6(CN7CCC(=C(F)F)CC7)CC6)nc5c3F)N3C[C@H]5CC[C@H](N5)[C@H]3[C@H](C)O4)c12 [Example 19-1, 4-((5S,5aS,6S,9R)-12-((1-((4-(difluoromethylene)piperidin-1-yl)methyl)cyclopropyl)methoxy)-1-fluoro-5-methyl-5a,6,7,8,9,10-hexahydro-5H-4-oxa-3,10a,11,13,14-pentaaza-6,9-methylnaphtho[1,8-ab]hept-2-yl)-5-ethynyl-6-fluoronaphthalene-2-ol]	5.6 nM	100.00%	101.30%	98.20%	91.51%	92.09%	27.4 h	100.00%	96.27%	91.39%	95.69%	94.09%	86.3 h	
C#Cc1c(F)ccc2cc(O)cc(-c3nc4c5c(nc(OCC6(CN7CCC(=NOC)CC7)CC6)nc5c3F)N3C[C@H]5CC[C@H](N5)[C@H]3[C@H](C)O4)c12 [Example 35-1, 1-((1-((((5S,5aS,6S,9R)-2-(8-ethynyl-7-fluoro-3-hydroxynaphthalen-1-yl)-1-fluoro-5-methyl-5a,6,7,8,9,10-hexahydro-5H-4-oxa-3,10a,11,13,14-pentaaza-6,9-methylenenaphtho[1,8-ab]heptalen-12-yl)oxo)methyl)cyclopropyl)methyl)piperidin-4-one O-methyloxime formate]	2.7 nM													Tumor volume (mm^3, Mean ± SD) Day 0 ([1]; Table 12): 469 mm^3; TGI(%) Day 14 ([1]; Table 12): 76.39%; ΔT/ΔC(%) Day 14 ([1]; Table 12): 61.00%; Tumor volume (mm^3, Mean ± SD) Day 21 ([1]; Table 12, Day 21): 585 mm^3
[2H]C([2H])([2H])[C@@H]1Oc2nc(-c3cc(O)cc4ccc(F)c(C#C)c34)c(F)c3nc(OCC4(CN5CCC(=CF)CC5)CC4)nc(c23)N2C[C@H]3CC[C@H](N3)[C@@H]12 [Example 164]	3.6 nM	100.00%	99.34%	95.56%	101.65%	100.99%	149 h	100.00%	97.07%	93.36%	97.21%	95.03%	91.6 h	
CON=C1CCN(CC2(COc3nc4c5c(nc(-c6cc(N)cc(Cl)c6C(F)(F)F)c(F)c5n3)O[C@@H](C)[C@@H]3[C@@H]5CC[C@H](CN43)N5)CC2)CC1 [Example 337, 1-((1-((((5S,5aS,6S,9R)-2-(5-amino-3-chloro-2-(trifluoromethyl)phenyl)-1-fluoro-5-methyl-5a,6,7,8,9,10-hexahydro-5H-4-oxa-3,10a,11,13,14-pentaaza-6,9-methylnaphtho[1,8-ab]heptene-12-yl)oxy)methyl)cyclopropyl)methyl)piperidin-4-one O-methyloxime]	4.6 nM													
[2H]C([2H])([2H])[C@@H]1Oc2nc(-c3cc(N)cc(Cl)c3C(F)(F)F)c(F)c3nc(OCC4(CN5CCC(=NOC)CC5)CC4)nc(c23)N2C[C@H]3CC[C@H](N3)[C@@H]12 [Example 339]	4.4 nM													Tumor volume (mm^3, Mean ± SD) Day 0 ([1]; Table 12): 469 mm^3; TGI(%) Day 14 ([1]; Table 12): 160.47%; ΔT/ΔC(%) Day 14 ([1]; Table 12): 19.36%; Tumor volume (mm^3, Mean ± SD) Day 21 ([1]; Table 12, Day 21): 185 mm^3
